Test results: US20260193244A1 (Protego Biopharma, Inc., priority 2022, published 2026)
Structures can show the parent of a compound that is named as a salt.

Tested on: IRE1-XBP1s (HEK293 T-REx cells stably expressing the XBP1-RLuc splicing reporter)
Assay: IRE1-XBP1s activation Assay (XBP1-RLuc splicing reporter, luminescence relative to thapsigargin, with or without IRE1 inhibitor 4μ8C)
Format: cell-based
Settings: 18 h, compound 10 μM, luminescence as percentage signal relative to thapsigargin (Tg) (500 nM, 18 h)
Method: IRE1-XBP1s activation Assay: HEK293 T-REx cells stably expressing the XBP1-RLuc splicing reporter were treated with an IRE1-XBP1s activator provided herein (10 μM) in the presence or absence of the IRE1 active site inhibitor 4μ8C (32 μM) for 18 h. Luminescence was shown as the percentage signal relative to thapsigargin (Tg) (500 nM, 18 h).

| SMILES | activation at 10 µM [%] |
| --- | --- |
| Cc1ccccc1OCCC(=O)Nc1cnn(CC(=O)N(C)c2ccccc2Oc2ccccc2)c1 [Compound 44] | < 30 |
| Cc1ccc(OCCN(C)C(=O)Cn2cc(NC(=O)C3CNc4ccccc4C3)cn2)cc1 (stereo not drawn) [Compound 66] | < 30 |
| Cc1ccc(O[C@@H]2CCCN(C(=O)Cn3cc(NC(=O)CCNc4c(F)cncc4Cl)cn3)C2)cc1 [Compound 184] | ≥ 50 |
| Cc1ccc(OCCC(=O)Nc2cnn(CC(=O)N3CCCCC(Oc4ccccc4)C3)c2)cc1 (stereo not drawn) [Compound 48] | < 30 |
| COc1ccc(N(C)C(=O)Cn2cc(NC(=O)CCOc3ccccc3)cn2)cc1 [Compound 113] | < 30 |
| Cc1ccc(OCCN(C)C(=O)Cn2cc(NC(=O)C3CNc4cccc(F)c4O3)cn2)cc1 (stereo not drawn) [Compound 127] | 30 to 50 |
| Cc1ccc(OC2CCCCN(C(=O)Cn3cc(NC(=O)CCOc4ccccc4)cn3)C2)cc1 (stereo not drawn) [Compound 117] | ≥ 50 |
| Cc1ccc(OC2CCCCN(C(=O)Cn3cc(NC(=O)CCNc4ccnc(F)n4)cn3)C2)cc1 (stereo not drawn) [Compound 171, 3-[(2-fluoropyrimidin-4-yl)amino]-N-[1-[2-[3-(4-methylphenoxy)azepan-1-yl]-2-oxo-ethyl]pyrazol-4-yl]propanamide] | < 30 |
| Cc1ccc(OC2CC3CC2N(C(=O)Cn2cc(NC(=O)CCNc4ccnc(F)n4)cn2)C3)cc1 (stereo not drawn) [Compound 174] | < 30 |
| Cc1ccc(OCCN(C)C(=O)Cn2cc(N(C)C(=O)C3CN(Cc4ccccc4)CCO3)cn2)cc1 (stereo not drawn) [Compound 14] | < 30 |
| Cc1ccc(Oc2ccc(N(C)C(=O)Cn3cc(NC(=O)CCOc4ccccc4C)cn3)cc2)cc1 [Compound 32, N-(1-(2-(methyl(4-(p-tolyloxy)phenyl)amino)-2-oxoethyl)-1H-pyrazol-4-yl)-3-(o-tolyloxy)propanamide hydrochloride] | < 30 |
| Cc1ccc(O[C@H]2CCCN(C(=O)Cn3cc(NC(=O)C4CC(Oc5ccncc5)C4)cn3)C2)cc1 (stereo partly drawn) [Compound 152] | ≥ 50 |
| Cc1ccc(OC2CCC23CN(C(=O)Cn2cc(NC(=O)CCNc4ccnc(F)n4)cn2)C3)cc1 (stereo not drawn) [Compound 177] | ≥ 50 |
| Cc1ccc(C2CN(C(=O)Cn3cc(NC(=O)CCOc4ccccc4)cn3)CCN2C)cc1 (stereo not drawn) [Compound 45, N-(1-(2-(4-methyl-3-(p-tolyl)piperazin-1-yl)-2-oxoethyl)-1H-pyrazol-4-yl)-3-phenoxypropanamide] | < 30 |
| Cc1ccc(OCCN(C)C(=O)Cn2cc(NC(=O)c3cnccc3N)cn2)cc1 [Compound 112] | < 30 |
| Cc1ccc(OCCN(C)C(=O)Cn2cc(NC(=O)C3COc4ccccc4O3)cn2)cc1 (stereo not drawn) [Compound 154] | ≥ 50 |
| Cc1ccc(OCCN(C)C(=O)Cn2cc(NC(=O)CC3CNc4cc(F)ccc4O3)cn2)cc1 (stereo not drawn) [Compound 96, 2-(4-(2-(6-fluoro-3,4-dihydro-2H-benzo[b][1,4]oxazin-2-yl)acetamido)-1H-pyrazol-1-yl)-N-methyl-N-(2-(p-tolyloxy)ethyl)acetamide] | 30 to 50 |
| Cc1ccc(OCCN(C)C(=O)Cn2cc(NC(=O)C3Oc4ccccc4O3)cn2)cc1 [Compound 128] | < 30 |
| Cc1ccc(O[C@H]2CCCN(C(=O)Cn3cc(NC(=O)CCNc4c(F)cncc4Cl)cn3)C2)cc1 [Compound 183] | ≥ 50 |
| Cc1ccc(OC2CCC23CN(C(=O)Cn2cc(NC(=O)C4CC(Oc5ccncc5)C4)cn2)C3)cc1 (stereo not drawn) [Compound 144] | ≥ 50 |
| O=C(CCNc1ccnc(F)n1)Nc1cnn(CC(=O)N2CCC[C@@H](Oc3ccc(C(F)F)cc3)C2)c1 [Compound 187] | < 30 |
| Cc1ccc(OC2CCCN(C(=O)Cn3cc(NC(=O)CCOc4ccccc4-c4ccccc4)cn3)C2)cc1 (stereo not drawn) [Compound 74] | < 30 |
| Cc1ccc(OCCN(C)C(=O)Cn2cc(NC(=O)C3CC(Oc4ccccn4)C3)cn2)cc1 (stereo not drawn) [Compound 140] | ≥ 50 |
| Cc1ccc(O[C@H]2CCCN(C(=O)Cn3cc(NC(=O)C4COc5ccccc5N4)cn3)C2)cc1 (stereo partly drawn) [Compound 155] | < 30 |
